Values quoted from earlier work, collected in patent US20020022622A1, “Thiazole, imidazole and oxazole compounds and treatments of disorders associated with protein aging” (priority 2000, published 2002).

How the values were obtained:
[1] = system: glomerular basement membrane thickness; conditions: streptozotocin-diabetic rat model
[2] = system: aortic wall protein cross-linking; conditions: diabetic rats
[3] = system: immunoglobulin trapping in the kidney; conditions: in vivo
red blood cells = conditions: in vivo

N=C(N)NN [aminoguanidine]
increased glomerular basement membrane thickness [1]: prevented | aortic wall protein cross-linking [2]: diminishes | immunoglobulin trapping in the kidney [3]: reduction | diabetes-induced changes in the deformability of red blood cells (red blood cells): prevent
